Ten compounds from ChEMBL document CHEMBL3425451, “Novel synthetic bisbenzimidazole that targets angiogenesis in Ehrlich ascites carcinoma bearing mice” (Bioorg Med Chem Lett, 2015) can be followed below.

For assay [1], the system named is HeLa. Kind of assay: Cytotoxicity against human HeLa cells by MTT assay. (Tetrazolium assays rely on reduction of a dye to a coloured formazan, in cell work by metabolically active cells.)
Assay [2] can be described thus: Cytotoxicity against human HCT116 cells by MTT assay. Format: functional, cell-based. The conditions noted are these: HCT-116.
A further assay has as its system A549. Kind of assay: Cytotoxicity against human A549 cells by MTT assay. Type of assay: functional, cell-based.
The test system of another assay is Vero. Kind of assay: Cytotoxicity against African green monkey Vero cells by MTT assay. Type of assay: cell-based. The conditions noted are these: Chlorocebus sabaeus.
The subject of assay [3] is HeLa. Kind of assay: Induction of apoptosis in human HeLa cells assessed as accumulation at subG1 phase at 25 uM by propidium iodide staining based flow cytometry. Format: functional, cell-based. The conditions noted are these: TDE = time-dependent effect.
Assay [4] has as its system EAT. Description: Antitumor activity against mouse EAT implanted in Swiss albino mouse assessed as reduction in body weight at 10 mg/kg injected into peritoneum and measured on day 11. Format: functional, organism-based. Also on record: dose 10 mg/kg.
Assay [5] relates to EAT. Description: Antitumor activity against mouse EAT implanted in Swiss albino mouse assessed as reduction in ascites fluid volume at 10 mg/kg injected into peritoneum and measured on day 12. Type of assay: functional, organism-based. Also on record: dose 10 mg/kg.
In assay [6] the test system is EAT. Description: Antitumor activity against mouse EAT implanted in Swiss albino mouse assessed as reduction in tumor cell viability at 10 mg/kg injected into peritoneum and measured on day 12 by trypan blue dye exclusion assay. Format: functional, organism-based. Also on record: dose 10 mg/kg.
Assay [7] relates to EAT. Description: Inhibition of peritoneal angiogenesis of mouse EAT implanted in Swiss albino mouse at 10 mg/kg injected into peritoneum. Type of assay: functional, organism-based. Also on record: dose 10 mg/kg.
Assay [8] deals with EAT. Kind of assay: Inhibition of peritoneal angiogenesis of mouse EAT implanted in Swiss albino mouse assessed as reduction in micro vessel density at 10 mg/kg injected into peritoneum by hematoxylin and eosin staining method. Format: functional, organism-based. Also on record: dose 10 mg/kg.
A short description of assay [9]: Inhibition of peritoneal angiogenesis of mouse EAT implanted in Swiss albino mouse assessed as reduction in micro vessel density by measuring number of micro vessels per high power field at 10 mg/kg injected into peritoneum by hematoxylin and eosin staining method (reference value: 54 +/- 6 vessels/high power field). Format: functional.
Assay [10] in a line: Inhibition of VEGF production in mouse EAT implanted in Swiss albino mouse peritoneal cavity at 10 mg/kg injected into peritoneum by ELISA method (reference value: 2412 +/- 10 ng). Format: functional.
Assay [11] deals with EAT. Kind of assay: […] of apoptosis in mouse EAT implanted in Swiss albino mouse assessed as induction of DNA fragmentation at 10 mg/kg injected into peritoneum by ethidium bromide staining based electrophoresis method. Type of assay: functional, organism-based. Also on record: dose 10 mg/kg.
Assay [12] has as its system EAT. Description: […] of apoptosis in mouse EAT implanted in Swiss albino mouse assessed as induction of cell shrinkage at 10 mg/kg injected into peritoneum by Giemsa staining based microscopy. Format: functional, organism-based. Also on record: dose 10 mg/kg.
Assay [13] deals with EAT. Description: […] of apoptosis in mouse EAT implanted in Swiss albino mouse assessed as induction of small blebs formation at 10 mg/kg injected into peritoneum by Giemsa staining based microscopy. Type of assay: functional, organism-based. Also on record: dose 10 mg/kg.
The test system of assay [14] is EAT. Kind of assay: […] of apoptosis in mouse EAT implanted in Swiss albino mouse assessed as induction of apoptotic bodies formation at 10 mg/kg injected into peritoneum by Giemsa staining based microscopy. Type of assay: functional, organism-based. Also on record: dose 10 mg/kg.

Activity calls are given as the source filed them. The rule behind the calls is not given here.

On to `CCCc1nc2c(C)cc(-c3nc4ccccc4n3C)cc2n1S(=O)(=O)c1c(C)cc(C)cc1C`, for which the IC50 in the assay with HeLa [1] is 21 µM; in [2], 29.9 µM; with A549, greater than 50 µM; with Vero, greater than 50 µM.

In turn, `CCCc1nc2c(C)cc(-c3nc4ccccc4n3C)cc2n1S(=O)(=O)c1ccccc1Cl` gave an IC50 in the assay with HeLa [1] greater than 50 µM.

On to `CCCc1nc2c(C)cc(-c3nc4ccccc4n3C)cc2n1S(=O)(=O)c1ccc(F)cc1`, for which the IC50 in the assay on HeLa [1] is 16.7 µM; in assay [2], 19.9 µM; in the assay on A549, 32.2 µM; with Vero, greater than 50 µM. Moreover, the Activity entry with HeLa [3] is “tde”; in assay [9], 8; in assay [10] it was 225 ng. Moreover, the inhibition result in the assay on EAT [4], in the assay on EAT [5], in the assay with EAT [6], with EAT [7] and with EAT [8] was “Active” throughout. The result in the assay on EAT [11], with EAT [12], in the assay on EAT [13] and with EAT [14] was Active.

The compound `CCCc1nc2c(C)cc(-c3nc4ccccc4n3C)cc2n1S(=O)(=O)c1ccccc1Br` yielded an IC50 with HeLa [1] greater than 50 µM.

Compound `CCCc1nc2c(C)cc(-c3nc4ccccc4n3C)cc2n1S(=O)(=O)c1cc(Cl)ccc1Cl` yielded an IC50 in the assay on HeLa [1] greater than 50 µM.

Regarding `CCCc1nc2c(C)cc(-c3nc4ccccc4n3C)cc2n1S(=O)(=O)c1ccc(C)cc1`, the IC50 is 20.1 µM in the assay on HeLa [1], 41.6 µM in assay [2], greater than 50 µM with A549 and greater than 50 µM in the assay on Vero.

As to `CCCc1nc2c(C)cc(-c3nc4ccccc4n3C)cc2n1S(=O)(=O)c1ccc(Cl)cc1`, the IC50 in the assay on HeLa [1] is 21.4 µM; in [2] it was 36.8 µM; with A549, greater than 50 µM; in the assay on Vero it was greater than 50 µM.

With `CCCc1nc2c(C)cc(-c3nc4ccccc4n3C)cc2n1S(=O)(=O)c1ccccc1`, the IC50 was 23.8 µM with HeLa [1], greater than 50 µM in assay [2], greater than 50 µM in the assay on A549 and greater than 50 µM in the assay with Vero.

As for `CCCc1nc2c(C)cc(-c3nc4ccccc4n3C)cc2n1S(=O)(=O)c1ccc(OC)cc1`, the IC50 is 18.3 µM in the assay with HeLa [1], 19.1 µM in assay [2], 34.7 µM in the assay with A549 and greater than 50 µM in the assay with Vero.

`CCCc1nc2c(C)cc(-c3nc4ccccc4n3C)cc2n1S(=O)(=O)c1ccc(Br)cc1`: the IC50 in the assay with HeLa [1] is 24.7 µM; in [2], 49.3 µM; in the assay on A549, 35.1 µM; in the assay on Vero, greater than 50 µM.

A word on the IC50: it is the point on the concentration scale where inhibition reaches its midpoint.
